One assay relates to CFTR-Y122X. Nature of the assay: CFTR-Y122X assay (dual reporter Hek293 cell lines, Renilla luminescence readthrough). The format is cell-based, human. To be noted: for Emax / AC50: nonsense mutation suppression, 24 h incubation, tested up to 100 μM; for Emax: 100% = 14 mM paromomycin, read-out: Amax; for AC50: Renilla luminescence. The text has this:
In particular, compounds of formula (I) act as nonsense mutation suppressors on frequent PTCs, e.g. on Y122X in the mRNA of the cystic fibrosis conductance regulator protein (CFTR). This can be determined in vitro, for example, using cell lines expressing GFP-CFTR-Y122X-Renilla constructs as described herein.
Activity of compounds of the present invention was examined in recombinant, dual reporter isogenic Hek293 cell lines (“CFTR-Y122X assay”). The engineered reporter constructs contained the 18 bp sequence strech corresponding to a common Y122X PTC mutation in CFTR class I mutant patients (see Sermet-Gaudelus, BMC Medicine, 2007, 5(5)). Instead of a tyrosine (Y) in position 122 of the CFTR protein a TGA stop codon interrupts the open reading frame (Y122X) of the corresponding mRNA. This TGA stop codon triplet (followed by the pyrimidine base cytosine) is permissive to aminoglycoside mediated translational readthrough which served as positive control for high throughput screening. A corresponding TAA stop codon variant and a wildtype non mutated construct was used for confirmation and counter screening. The CFTR sequence was sandwitched between an eGFP reporter, and a triple myc tag sequence fused to a full length Renilla reporter. All sequences, including an intron containing one positioned pre-eGFP (b-globin intron) were cloned in frame. The corresponding expression constructs were stably expressed in the isogenic HEK-R4 cell host (Invitrogen Incorp.) and selected by blasticidin resistance. The isogenic integration of the construct minimizes gene dose effects and improves assay reproducibility. Stably integrated single cell derived clones were selected and characterized for aminoglycoside mediated readthrough. […] Readthrough of Y122X accumulates an intracellular localized fusion protein approximately 65.5 kDa in size as controlled by western blot analysis and immunofluorescence using an anti-renilla antibody. The eGFP reporter pre-PTC mutation serves as visual control for genetic stability of the screening clones and minimizes protein degradation of small fusion protein amounts. In the assay, compound concentration was 10 μM. In miniaturized 1536 well format 2000 cells were dispensed in 4 μl/well and incubated for 24 h at 37° C., 5% CO2. 40 nl compounds were placed on the cells with control wells containing 1 ul Paramomycin and 14.4 mM final concentration. Compounds were incubated for 24 h. Renilla Glo substrate (2.5 ul) was added and plates were centrifuged and processed for luminescence measurement using various readers. Activity calculation was done using the equation: A1(%)=100*(S−NC)/(AC−NC) where AC, NC and S correspond to active controls (injection of Stimulation buffer=100% stimulation), neutral controls (buffer injection which […]) and screening samples (S). NC corresponds to 0% activity whereas AC is 100% activity (14 mM paromomycin). False positive artefacts were removed in confirmation and validation screening using the same assay format followed by counterscreening using the respective wildtype construct (w/o PTC mutation) cell model. Compounds were tested up to 100 μM compound concentration.

Assay [1] concerns alpha-L-Iduronidase W402X in Hurler patient derived fibroblast cells. Nature of the assay: Hurler patient derived fibroblast cell cultures: restored alpha-L-iduronidase activity (W402X readthrough). To be noted: Homo sapiens, 192 h, 8 days incubation, highest concentration 20 uM; for Emax: 100% = 14 mM paromomycin, read-out: Amax. Format: cell-based. An excerpt: Activity of compounds of the present invention was examined in patient derived fibroblast cells. The genotyped cells were derived from the Coriell Institute (#GM00798) and contain an in frame homozygous TGG to TAG change at nucleotide 1293 of exon 9 which results in a W402X mutation. The W402X mutation is one of the most common Hurler syndromes causing loss of function mutation. Between 60-70% of genotyped patients contain either the Q70X and/or the W402X in mutation and are classified as severe MPSI patients. This TAG stop codon triplet is permissive to aminoglycoside mediated translational readthrough which served as activity control for compound testing. Readthrough of W402X restores alpha-L-Iduronidase activity which results in removal of lysosomal accumulated Glycosaminoglycan's. Iduronidase expression could neither be detected by Taqman PCR© nor by enzyme activity or ELISA methods without compound stimulation. Compounds were tested in concentration response mode. Therefore 5000 patient cells/40 ul/well in 384 well plates were used. Compound dilutions were derived from freshly prepared 10 mM compound stock solutions. Highest concentration was 20 uM and subsequently diluted 1: 3.16 (8 point dilutions, n=4). Final DMSO concentration was below 0.5% and tested to be without effect on cell viability, growth and readthrough. Cells were incubated for 8 days with one cell media and compound exchange at day 3. Thereafter cell media was removed and cells were lysed (0.4 M Sodiumformate, 0.1% NaN3, 0.9% NaCl, 0.2% Triton, pH 3.5). Restored alpha-L-iduronidase activity in cell lysates was measured with the fluorescent 4-MU iduronide substrate (5 ul of 0.4 mM 4 Methylumbelliferyl alpha-L-iduronide/well) after 48 h incubation. Paromomycin was used as reference control (14 mM=100% control).

Each structure is given as a SMILES string.

For orientation: EC50 means the concentration giving half of the maximal effect. A word on the AC50: it is the concentration at which the activity in the assay is half-maximal. Read a high AC50 as activity only at high concentration.

Take `NC[C@@H]1O[C@H](O[C@H]2[C@@H](O)[C@H](O[C@@H]3[C@@H](O)[C@H](N)C[C@H](N)[C@H]3O[C@H]3O[C@H](CO)[C@@H](O)[C@H](O)[C@H]3N)O[C@@H]2CO)[C@H](N)[C@@H](O)[C@@H]1O` [paromomycin, reference compound]: the EC50 in the assay with CFTR-Y122X (Homo sapiens, HEK293, clone selected for HTS assay development, read-out: EC50 (response of selected clone to aminoglycoside mediated readthrough)) worked out at 1500 µM.
For `CCCc1nc2c(c(=O)c3ccccc3n2C)c(=O)n1-c1ccn(C)n1` [Example 1.3, 10-methyl-3-(1-methyl-1H-pyrazol-3-yl)-2-propylpyrimido[4,5-b]quinoline-4,5(3H,10H)-dione], the Emax in assay [1] was determined as 8%. For the same compound, in the assay with CFTR-Y122X (Homo sapiens, HEK293), the Emax came to 202% and half-maximal activity (AC50) was put at 31.8 µM.
The corresponding values for `CCCc1nc2c(c(=O)c3ccccc3n2C)c(=O)n1-c1ccccn1` [Example 1.2, 10-methyl-2-propyl-3-(pyridin-2-yl)pyrimido[4,5-b]quinoline-4,5(3H,10H)-dione] are 1%, 235% and 18 µM.
For `CC(C)c1nc2c(c(=O)c3ccccc3n2C)c(=O)n1-c1ccn(C)n1` [Example 1.4, 2-isopropyl-10-methyl-3-(1-methyl-1H-pyrazol-3-yl)pyrimido[4,5-b]quinoline-4,5(3H,10H)-dione] the same measures were 21%, 133% and 13.6 µM.
For `CC(C)c1nc2c(c(=O)c3ccccc3n2C)c(=O)n1-c1ccsc1` [Example 1.5, 2-isopropyl-10-methyl-3-(thiophen-3-yl)pyrimido[4,5-b]quinoline-4,5(3H,10H)-dione] the same measures were 5%, 128% and 12.3 µM.
Regarding `CC(C)c1nc2c(c(=O)c3ccccc3n2C)c(=O)n1-c1ccccn1` [Example 1.7, 2-isopropyl-10-methyl-3-(pyridin-2-yl)pyrimido[4,5-b]quinoline-4,5(3H,10H)-dione], the Emax in assay [1] was determined as 11%. In the assay on CFTR-Y122X (Homo sapiens, HEK293), the Emax came out at 164% and the AC50 is 11.7 µM.
As to `Cn1c2ccccc2c(=O)c2c(=O)n(-c3ccccn3)c(C3CCC3)nc21` [Example 1.8, 2-cyclobutyl-10-methyl-3-(pyridin-2-yl)pyrimido[4,5-b]quinoline-4,5(3H,10H)-dione], the Emax came to 184% in assay [1] and 271% in the assay with CFTR-Y122X (Homo sapiens, HEK293). For the same compound, the AC50 was found to be 9.9 µM in assay [1] (8 point dilutions) and 4.8 µM in the assay with CFTR-Y122X (Homo sapiens, HEK293).
In the case of `CC(C)c1nc2c(c(=O)c3ccccc3n2C)c(=O)n1-c1cc[nH]n1` [Example 1.1, 2-isopropyl-10-methyl-3-(1H-pyrazol-3-yl)pyrimido[4,5-b]quinoline-4,5(3H,10H)-dione], the Emax in assay [1] was 7%. Besides, in the assay on CFTR-Y122X (Homo sapiens, HEK293), the Emax is 14.8% and the AC50 amounted to 6.7 µM.
For the compound `CC(C)c1nc2c(c(=O)c3ccccc3n2C)c(=O)n1-c1ccnn1C` [2-isopropyl-10-methyl-3-(1-methyl-1H-pyrazol-5-yl)pyrimido[4,5-b]quinoline-4,5(3H,10H)-dione], the “suppression, % of paromomycin reference activity” value in the assay with CFTR-Y122X (at the above dose ranges (up to 100 μM), paromomycin reference = 100%) was “less than 5%”.
As to `CC(C)c1nc2c(c(=O)c3ccccc3n2C)c(=O)n1-c1ccncc1` [Example 1.6, 2-isopropyl-10-methyl-3-(pyridin-4-yl)pyrimido[4,5-b]quinoline-4,5(3H,10H)-dione], the Emax was determined as 5% in assay [1] and 14.9% with CFTR-Y122X (Homo sapiens, HEK293). In the assay on CFTR-Y122X (Homo sapiens, HEK293), this compound displayed an AC50 of 2.9 µM.

(Values after patent US9896448B2, “Pyrimido[4,5-b]quinoline-4,5(3H, 10H)-dione derivatives” (Novartis AG, priority 2014, dated 2018).)
